# Laboratory results reported in patent US20240368174A1, “Antiviral Heterocyclic Compounds” (Enanta Pharmaceuticals, Inc., priority 2023, published 2024).
# Test system: HMPV clinical isolate A2 strain TN 94-49
# Assay: HMPV antiviral assay, Method 2 (LLC-MK2 cells with CP-100-356, ATP-Lite)
# Assay type: cell-based
# Conditions: human metapneumovirus
# Description: In vitro HMPV antiviral activity was evaluated using the clinical isolate A2 strain TN 94-49 (obtained from Dr. John Williams, Vanderbilt University, Tennessee) and LLC-MK2 cells (Millipore Sigma CB_85062804), an immortalized kidney epithelial cell line from Macaca mulatta. Compounds were resuspended in dimethyl sulfoxide (DMSO) at 10 mM, serially diluted and added to a 384-well source plate. Subsequently, the compounds were diluted and transferred onto 384-well assay plates using the Echo-650 automated liquid handling system (Beckman Coulter, Indiana). The test compounds were assessed in duplicate at a top concentration of 200 nM followed by 2.5-fold serial dilutions to give a total of 10 concentration points. DMSO control wells were also included on the assay plates and were either infected or not, acting as positive and negative controls. A2 TN 94-49 virus infections were performed in-suspension with LLC-MK2 cells. The cells were washed twice with PBS and removed from the cell-culture flask with 0.25% trypsin-EDTA (Thermo Fisher Scientific, MA). The trypsin-EDTA was inactivated by resuspending in 2% fetal bovine serum (FBS) and OptiMEM (ThermoFisher Scientific, MA) containing 1% antibiotic-antimycotic. Cells were pelleted by centrifuging for 5 minutes at 800 rpm, the supernatant was removed, and cells were re-suspended and washed in PBS plus 100 μg/mL CaCl2). This step was performed twice. Cells were then re-suspended in serum-free (SF)-OptiMEM containing 4 μg/mL TPCK-Trypsin (Sigma Aldrich, MO), 1% antibiotic-antimycotic (ThermoFisher Scientific, MA), 100 μg/mL CaCl2), and 4 μM of CP-100-356, a P-glycoprotein inhibitor. Cells were counted and seeded at a density of 5,000 cells/well, 12.5 μL/well. Virus infections were done at a multiplicity of infection (MOI) of 0.16 with 12.5 μL added per well. Virus infections were performed in infection media which contained SF-OptiMEM, 100 μg/mL CaCl2) and 1% antibiotic-antimycotic. HMPV viral stocks are suspended in infection media+5% glycerol, thus an equal volume of infection media+5% glycerol was added to uninfected wells to equalize the final % glycerol across all wells of the assay plate. The final concentration of TPCK-trypsin was 2 μg/mL. The final concentration of CP-100-356 was 2 μM. The assay plates were incubated at 37° C., 5% CO2 for 7 days. After 7 days incubation, 12.5 μL of ATP-Lite (PerkinElmer, MA) was added to each well and the raw luminescence values were determined using the Envision 2104 (Perkin Elmer, MA). The average of the raw luminescence values for the cells and virus only positive control wells was subtracted from all conditions tested and the percent cell health was determined by dividing these values by the average of the cells only negative control wells. EC50 values were then calculated by non-linear regression using a four-parameter curve logistic equation. The curve fit model employed was XLFit Dose Response One Site Model 200: y=(A+(B/(1+((x/C)^D)))), where A is the minimum y value, B is the maximum y value, C is the log EC50 value, and D is the slope factor.
# [1] = 168 h, hMPV A2 TN/94-49, LLC-MK2 cells with 4 μM CP-100-356, 7 days, ATP-Lite
# [2] = hMPV A2 TN/94-49, LLC-MK2 cells with CP-100-356, Method 2
SMILES,EC50 [1],EC50 [2]
COc1cc(C(=O)NC[C@](O)(c2cc3c(c(-n4ccc5ccccc54)n2)OC[C@]3(C)C(N)=O)C(F)(F)F)cc2cn(C(F)F)nc12 [Example 449],,< 200 nM
COc1cc(C(=O)NC[C@](O)(c2cc3c(c(-c4ccnc(C(F)(F)F)c4Cl)n2)OC[C@]3(C)C(N)=O)C(F)(F)F)cc2cn(C(F)F)nc12 [Example 790],< 200 nM,
COc1cc(C(=O)NC[C@](O)(c2cc3c(c(-c4ccnc(Cl)c4Cl)n2)OC[C@]3(C)C(N)=O)C2(F)CC2)cc2oc(C3CC3)nc12 [Example 520],,< 200 nM
COc1cc(C(=O)NC[C@@](O)(c2cccc(C(C)=O)c2)c2cc3c(c(-c4cccc(Cl)c4Cl)n2)OC[C@]3(C)C(N)=O)cc2cn(C3CC3)nc12 [Example 493],,< 200 nM
COc1cc(C(=O)NC[C@](O)(c2cc3c(c(-c4c(F)cncc4Cl)n2)OC[C@]3(C)C(N)=O)C2CC2)cc2cn(C3CC3)nc12 [Example 724],< 200 nM,
COc1cc(C(=O)NC[C@](O)(c2cc3c(c(-c4ccnc(C)c4F)n2)OC[C@]3(C)C(N)=O)C2CC2)cc2cn(C3CC3)nc12 [Example 428],,< 200 nM
COc1cc(C(=O)NC[C@@](O)(c2ccccc2)c2cc3c(c(-c4ccnc(F)c4Cl)n2)OC[C@]3(C)C(N)=O)cn2cc(C3CC3)nc12 [Example 664],< 200 nM,
COc1nccc(-c2nc([C@@](O)(CNC(=O)c3cc(OC)c4nc(C5CC5)cn4c3)C3CC3)cc3c2OC[C@]3(C)C(N)=O)c1Cl [Example 583],,< 200 nM
COc1cc(C(=O)NC[C@](O)(c2cc3c(c(-c4cccc(C(=O)N(C)C)c4Cl)n2)OC[C@]3(C)C(N)=O)C2CC2)cc2cn(C3CC3)nc12 [Example 809],> 200 nM,
COc1cc(C(=O)NCC(O)(c2ccccc2)c2cc3c(c(-c4ccc(F)cc4)n2)OC[C@]3(C)C(N)=O)cc2cn(C3(F)CC3)nc12 (stereo partly shown) [Example 361],,> 200 nM
CCc1nccc(-c2nc([C@@](O)(CNC(=O)c3cc(OC)c4nn(C5CC5)cc4c3)C3CC3)cc3c2OC[C@]3(C)C(N)=O)c1Cl [Example 807],< 200 nM,
COc1cc(C(=O)NC[C@](O)(c2cc3c(c(-n4ccc5ccncc54)n2)OC[C@]3(C)C(N)=O)C2CC2)cc2cn(C3CC3)nc12 [Example 448],,> 200 nM
COc1cc(C(=O)NC[C@@](O)(c2ccccc2)c2cc3c(c(-c4cc(C(F)(F)F)c(F)cc4F)n2)OC[C@]3(C)C(N)=O)cc2cn(C3(F)CC3)nc12 [Example 303],,< 200 nM
Cc1nccc(-c2nc([C@@](O)(CNC(=O)c3cc(OC4CC4)c4nn(C5(F)CC5)cc4c3)C3CC3)cc3c2OC[C@]3(C)C(N)=O)c1Cl [Example 602],,< 200 nM
COc1cc(-c2nc([C@@](O)(CNC(=O)c3cc(OC)c4nn(C5CC5)cc4c3)C(F)(F)F)cc3c2OC[C@]3(C)C(N)=O)c(F)cn1 [Example 831],> 200 nM,
COc1cc(C(=O)NC[C@@](O)(c2ccc(F)cc2)c2cc3c(c(-c4ccnc(C)c4Cl)n2)OC[C@]3(C)C(N)=O)cc2cn(C3(F)CC3)nc12 [Example 647],< 200 nM,
COc1cc(C(=O)NC[C@](O)(c2cc3c(c(-c4ccnc(C(C)C)c4Cl)n2)OC[C@]3(C)C(N)=O)C2CC2)cc2cc(C3CC3)nn12 [Example 910],> 200 nM,
COc1cc(C(=O)NC[C@@](O)(c2cccc(F)c2)c2cc3c(c(-c4cccc(Cl)c4Cl)n2)OC[C@]3(C)C(N)=O)cn2cc(C3CC3)nc12 [Example 337],,< 200 nM
COc1cc(C(=O)NC[C@](O)(c2cc3c(c(-c4ccnc(Cl)c4Cl)n2)OC[C@]3(C)C(N)=O)C2(F)CC2)cc2cn(C(F)F)nc12 [Example 521],,< 200 nM
COc1cc(C(=O)NC[C@@](O)(c2ccc(F)cc2)c2cc3c(c(-c4ccnc(C(F)F)c4Cl)n2)OC[C@]3(C)C(N)=O)cc2cn(C3(F)CC3)nc12 [Example 570],,< 200 nM

# The next lines start with the values.
EC50 [1],EC50 [2],SMILES
> 200 nM,,COc1cc(C(=O)NC[C@](O)(c2cc3c(c(-c4ccnc(C(C)C)c4Cl)n2)OC[C@]3(C)C(N)=O)C2CC2)cc2oc(C3CC3)nc12 [Example 909]
,< 200 nM,COc1cc(C(=O)NC[C@@](O)(c2ccccc2)c2cc3c(c(-c4cc(F)c(F)cc4F)n2)OC[C@]3(C)C(N)=O)cc2oc(C3CC3)nc12 [Example 195]
,< 200 nM,C[C@]1(C(N)=O)COc2c1cc([C@@](O)(CNC(=O)c1cc(Cl)c3nn(C4CC4)cc3c1)C(F)(F)F)nc2-c1ccnc(C(F)F)c1Cl [Example 549]
,< 200 nM,COc1cc(C(=O)NC[C@@](O)(c2ccnc(C#N)c2)c2cc3c(c(-c4cc(Cl)c(F)cc4F)n2)OC[C@]3(C)C(N)=O)cc2cn(C3CC3)nc12 [Example 501]
< 200 nM,,COc1cc(-c2nc([C@@](O)(CNC(=O)c3cc(OC)c4nn(C5(F)CC5)cc4c3)c3ccccc3)cc3c2OC[C@]3(C)C(N)=O)c(F)cn1 [Example 640]
< 200 nM,,COc1cc(C(=O)NC[C@](O)(c2cc3c(c(-c4c(C)cncc4C)n2)OC[C@]3(C)C(N)=O)C2CC2)cc2cn(C3CC3)nc12 [Example 726]
,< 200 nM,COc1cc(C(=O)NC[C@@](O)(c2cccc(F)c2)c2cc3c(c(-c4ccnc(C)c4Cl)n2)OC[C@]3(C)C(N)=O)cc2oc(C3CC3)nc12 [Example 540]
,> 200 nM,COc1cc(C(=O)NC[C@](O)(c2cc3c(c(-c4ccnc(F)c4)n2)OC[C@]3(C)C(N)=O)C2CC2)cc2cn(C3CC3)nc12 [Example 121]
,< 200 nM,COc1cc(C(=O)NC[C@@](O)(c2ccccc2)c2cc3c(c(-c4ccnc(F)c4Cl)n2)OC[C@]3(C)C(N)=O)cc2cn(C(F)F)nc12 [Example 358]
> 200 nM,,COc1cc(C(=O)NC[C@](O)(c2cc3c(c(-c4ccnc(C(C)C)c4Cl)n2)OC[C@]3(C)C(N)=O)C2CC2)cc2cn(C(F)F)nc12 [Example 907]
> 200 nM,,COc1cc(C(=O)NC[C@](O)(c2cc3c(c(-c4ccnc5[nH]ccc45)n2)OC[C@]3(C)C(N)=O)C2CC2)cc2cn(C3CC3)nc12 [Example 728]
,< 200 nM,COc1cc(C(=O)NC[C@](O)(c2cc3c(c(-c4ccnc5ccccc45)n2)OC[C@]3(C)C(N)=O)C2CC2)cc2cn(C3CC3)nc12 [Example 430]
,< 200 nM,COc1cc(C(=O)NC[C@](O)(c2cc3c(c(-c4cc(C(F)(F)F)ncc4F)n2)OC[C@]3(C)C(N)=O)C2CC2)cc2cc(C3CC3)nn12 [Example 354]
> 200 nM,,CC(C)c1nccc(-c2nc([C@@](O)(CNC(=O)c3cc(OC4CC4)c4nn(C(F)F)cc4c3)C3CC3)cc3c2OC[C@]3(C)C(N)=O)c1Cl [Example 914]
,< 200 nM,COc1cc([C@](O)(CNC(=O)c2cc(OC)c3nn(C4CC4)cc3c2)c2cc3c(c(-c4cc(Cl)c(F)cc4F)n2)OC[C@]3(C)C(N)=O)cc(F)n1 [Example 503]
,< 200 nM,[2H]C([2H])([2H])NC(=O)[C@@]1(C)COc2c1cc([C@@](O)(CNC(=O)c1cc(OC)c3nn(C4(F)CC4)cc3c1)c1ccccc1)nc2-c1cc(Cl)c(F)cc1F [Example 109]
,> 200 nM,COc1cc(C(=O)NC[C@](O)(c2cccc(F)c2)c2cc3c(c(-c4cc(Cl)ncc4F)n2)OC[C@]3(C)C(N)=O)cc2cn(C3CC3)nc12 [Example 411]
,< 200 nM,COc1cc(C(=O)NC[C@@](O)(c2ccccc2)c2cc3c(c(-c4cc(C(F)(F)F)ccc4F)n2)OC[C@]3(C)C(N)=O)cc2oc(C3CC3)nc12 [Example 332]
,< 200 nM,COc1cccc(-c2nc([C@@](O)(CNC(=O)c3cc(OC)c4nn(C5(F)CC5)cc4c3)c3ccccc3)cc3c2OC[C@]3(C)C(N)=O)c1Cl [Example 374]
,< 200 nM,C[C@]1(C(N)=O)COc2c1cc([C@@](O)(CNC(=O)c1cc(C(F)(F)F)c3nn(C4CC4)cc3c1)c1ccccc1)nc2-c1cc(Cl)c(F)cc1F [Example 228]
,< 200 nM,Cc1nccc(-c2nc([C@@](O)(CNC(=O)c3cc(OC4CC4)c4nn(C5(F)CC5)cc4c3)c3cccc(F)c3)cc3c2OC[C@]3(C)C(N)=O)c1Cl [Example 605]
,< 200 nM,COc1cc(C(=O)NC[C@](O)(c2cc3c(c(-c4cc(Cl)c(F)cc4F)n2)OC[C@]3(C)C(N)=O)C2(C)CC2)cc2cn(C3CC3)nc12 [Example 516]
> 200 nM,,COc1cc(C(=O)NC[C@](O)(c2cc3c(c(-c4ccnc5c4OCCO5)n2)OC[C@]3(C)C(N)=O)C2CC2)cc2cn(C3CC3)nc12 [Example 812]
